Laboratory results reported in US20150191606A1, “USE OF VANADIUM-CONTAINING PARTICLES AS A BIOCIDE” (priority 2012, published 2015).

B1: wild-type V-CPO from C. inaequalis: wild-type vanadium chloroperoxidase from C. inaequalis (protein, UniProt P49053 1-609, looked up)
Vanadium chloroperoxidase: MGSVTPIPLPKIDEPEEYNTNYILFWNHVGLELNRVTHTVGGPLTGPPLSARALGMLHLAIHDAYFSICPPTDFTTFLSPDTENAAYRLPSPNGANDARQAVAGAALKMLSSLYMKPVEQPNPNPGANISDNAYAQLGLVLDRSVLEAPGGVDRESASFMFGEDVADVFFALLNDPRGASQEGYHPTPGRYKFDDEPTHPVVLIPVDPNNPNGPKMPFRQYHAPFYGKTTKRFATQSEHFLADPPGLRSNADETAEYDDAVRVAIAMGGAQALNSTKRSPWQTAQGLYWAYDGSNLIGTPPRFYNQIVRRIAVTYKKEEDLANSEVNNADFARLFALVDVACTDAGIFSWKEKWEFEFWRPLSGVRDDGRPDHGDPFWLTLGAPATNTNDIPFKPPFPAYPSGHATFGGAVFQMVRRYYNGRVGTWKDDEPDNIAIDMMISEELNGVNRDLRQPYDPTAPIEDQPGIVRTRIVRHFDSAWELMFENAISRIFLGVHWRFDAAAARDILIPTTTKDVYAVDNNGATVFQNVEDIRYTTRGTREDPEGLFPIGGVPLGIEIADEIFNNGLKPTPPEIQPMPQETPVQKPVGQQPVKGMWEEEQAPVVKEAP

What was measured:
E. coli [1] = assay: E. coli growth inhibition test, OD at 595 nm; assay type: cell-based
Experimental: Overnight cultures of E. coli cells (OneShot® Chemically Competent E. Coli, Cat. No. C4040-10, Invitrogen) in LB media (Cat. No. X968.2, Carl-Roth, Germany) were initially done. For the growth inhibition tests cultures were prepared by initially dispersing VO(acac)2 (Sigma Aldrich, 0.08 mg/ml) in 5 ml LB medium to which KBr (1 mM) and H2O2 (100 μM) were added. To start the culture 20 μl of the overnight E. coli stock was added. The cultures were kept at 37° C. with agitation, and the OD was measured at 595 nm at different time points until 180 min (beginning of stationary phase). As controls either only VO(acac)2 or only H2O2/Br^− was added to the cultures in the concentrations given above. For comparative purposes the same assay was done with V2O5 nanowires (Example 1) in the same concentration range as VO(acac)2 (0.08 mg/ml).

E. coli [2] = assay: Biocidal rosine paint formulations on steel plates, DAPI fluorescence, qualitative; assay type: cell-based; conditions: Br- 1 mM, H2O2, 3 days at 37° C.
Experimental: A self-polishing rosine formulation was prepared as follows: 22 g of Rosine/Kolophonium (Aldrich) was mixed with 8 g Xylene (Aldrich) and stirred 45 min until well dissolved. Under continuous stirring 0.4 g Thixatrol Max (Elementis) and 1.5 g Bentone SD 1 (Elementis) were added and stirred for at least 5 min. Under continuous stirring 10 g zinc oxide (Aldrich) [optional], 9 g iron oxide red (Aldrich) [optional], 15 g talcum (Aldrich), ×g of biocide and 10-×g of barium sulfate as a filler were added, and the whole mixture was dispersed for at least 15 min at 600-900 rpm. Under stirring 8 g Xylene (Aldrich), 6.7 g Hordaflex LC 50 (Leuna-Tenside) and 8 g petrol 140/180 (Merck) were added.
Steel plates of 2×2 cm were painted directly with no previous treatment with said rosine formulation by brushing and drying for 3 days at room temperature. No surface characterization was performed. […]
After incubation the substrates were gently washed with LB media and PBS buffer. Bacterial cells were stained with […] (DAPI, 1 mg/ml), and fluorescence analysis was performed using an Olympus AHBT3 light microscope together with an AH3-RFC reflected light fluorescence attachment. The presence of bacterial colonies was easily detected by the presence of bright blue “dots” or “clusters”. […]

V-CPO from C. inaequalis = V-CPO from C. inaequalis (Curvularia inaequalis, UniProt P49053, L241V/P395D/T343A); conditions: cited from earlier work
Chain of V-CPO from C. inaequalis (P49053 whole entry L241V/T343A/P395D): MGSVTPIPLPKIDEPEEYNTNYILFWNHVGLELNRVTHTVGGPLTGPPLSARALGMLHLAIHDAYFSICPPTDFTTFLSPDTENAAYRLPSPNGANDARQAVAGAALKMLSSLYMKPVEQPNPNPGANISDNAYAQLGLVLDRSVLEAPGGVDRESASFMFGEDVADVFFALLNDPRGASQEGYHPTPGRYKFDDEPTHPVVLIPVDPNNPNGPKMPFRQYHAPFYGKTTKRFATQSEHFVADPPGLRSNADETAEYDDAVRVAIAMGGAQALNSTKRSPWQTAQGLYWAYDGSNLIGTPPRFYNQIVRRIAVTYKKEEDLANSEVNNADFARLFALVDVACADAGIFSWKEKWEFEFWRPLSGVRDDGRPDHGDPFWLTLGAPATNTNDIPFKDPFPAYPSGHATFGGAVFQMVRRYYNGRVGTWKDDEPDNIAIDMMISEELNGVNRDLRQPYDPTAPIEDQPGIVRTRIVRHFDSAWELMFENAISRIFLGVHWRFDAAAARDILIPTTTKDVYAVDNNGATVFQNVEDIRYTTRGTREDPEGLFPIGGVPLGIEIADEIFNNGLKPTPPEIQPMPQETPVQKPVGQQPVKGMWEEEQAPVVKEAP

Row | Molecule | Decay in E. coli growth (%) (E. coli [1]; 0.08 mg/ml, KBr 1 mM, H2O2 100 μM as named in sample, 180 min) | antimicrobial activity by itself (E. coli [1]; without H2O2/Br-) | adherence of E. coli to painted surface (E. coli [2]; 0.5% biocide in dry film) | adherence of E. coli to painted surface (E. coli [2]; 10% biocide in dry film) | optimal pH (V-CPO from C. inaequalis)
1 | Vanadyl acetylacetonate [VO(acac)2] | 6% | no relevant antimicrobial activity | inhibited the adhesion of E. coli | inhibited the adhesion of E. coli | –
2 | B1 | – | – | – | – | 5.5
